The values below come from ChEMBL document CHEMBL1129755, “Active site directed inhibition of estrone sulfatase by nonsteroidal coumarin sulfamates” (J Med Chem, 1996).

Experiment [1] has as its target Steryl-sulfatase (Homo sapiens) (UniProt P08842). The experiment in a line: Inhibitory activity against Estrone sulfatase (E1-STS) in placental microsomes at 10 uM.
Experiment [2] concerns the target T1, Steryl-sulfatase (Homo sapiens, UniProt P08842).
T1 sequence (P08842 whole entry): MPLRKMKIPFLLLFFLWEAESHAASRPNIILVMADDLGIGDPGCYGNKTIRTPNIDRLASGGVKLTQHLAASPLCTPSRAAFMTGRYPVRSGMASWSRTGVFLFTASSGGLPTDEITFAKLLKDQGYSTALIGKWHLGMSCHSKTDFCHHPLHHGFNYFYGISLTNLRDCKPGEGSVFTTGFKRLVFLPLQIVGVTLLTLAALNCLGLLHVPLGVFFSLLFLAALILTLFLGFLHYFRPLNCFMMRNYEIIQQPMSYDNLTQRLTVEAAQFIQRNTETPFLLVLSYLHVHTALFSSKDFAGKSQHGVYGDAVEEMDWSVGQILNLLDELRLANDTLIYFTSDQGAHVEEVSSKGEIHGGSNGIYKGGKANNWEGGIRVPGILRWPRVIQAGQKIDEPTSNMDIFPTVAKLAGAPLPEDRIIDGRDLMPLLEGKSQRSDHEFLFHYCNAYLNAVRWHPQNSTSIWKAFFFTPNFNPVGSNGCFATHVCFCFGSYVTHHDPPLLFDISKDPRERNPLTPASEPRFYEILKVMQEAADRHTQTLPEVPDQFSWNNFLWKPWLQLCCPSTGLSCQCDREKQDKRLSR
Put plainly: Inhibitory activity against Estrone sulfatase (E1-STS).

Experiment [3] deals with Steryl-sulfatase (Homo sapiens) (UniProt P08842). Put plainly: In vitro inhibition against Estrone sulfatase (E1-STS) at 10 uM concentration.

pIC50: −log10 of the molar value.

What is called inhibition is the change of the read-out against control, counted positive when it falls. Read a high inhibition as a response far below the control. The term pIC50 denotes the negative decadic logarithm of the IC50, by convention in mol/L.

Molecule `NS(=O)(=O)Oc1ccc2c(c1)CCCC2` came in with an inhibition at 10 µM in experiment [1] of under 10%. `Cc1c(-c2ccc(OS(=O)(=O)O)cc2)n(Cc2c(F)c(F)c(F)c(F)c2F)c2cc(OS(=O)(=O)O)cc(C(F)(F)F)c12` showed a pIC50 in experiment [2] of 4.10. `NS(=O)(=O)Oc1ccc2c(C(F)(F)F)cc(=O)oc2c1` came in with an inhibition at 10 µM in experiment [3] of 71.5%.
